{
  "source": "PubChem BioAssay AID256",
  "about": "(DTP/NCI, 2004)",
  "test_system": "CD2F1 mice, L1210 leukemia ip, survival T/C",
  "assay": "NCI In Vivo Anticancer Drug Screen. Data for tumor model L1210 Leukemia (intraperitoneal) in CD2F1 (CDF1) mice",
  "conditions": "higher = longer survival",
  "method_in_brief": "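Transplantable tumor in mice; compound-treated vs vehicle-treated groups. Read-out = treated/control ratio of the measured endpoint.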",
  "key": {"[1]": {"conditions": "endpoint: mean survival time, dose: 12.5 mg/kg/injection, schedule: Q01DX009 (ip), vehicle: saline with Tween-80"}, "[2]": {"conditions": "endpoint: mean survival time, dose: 25.0 mg/kg/injection, schedule: Q01DX009 (ip), vehicle: saline with Tween-80"}, "[3]": {"conditions": "endpoint: mean survival time, dose: 50.0 mg/kg/injection, schedule: Q01DX009 (ip), vehicle: saline with Tween-80"}, "[4]": {"conditions": "endpoint: mean survival time, dose: 100.0 mg/kg/injection, schedule: Q04DX002 (ip), vehicle: saline with Tween-80"}, "[5]": {"conditions": "endpoint: mean survival time, dose: 200.0 mg/kg/injection, schedule: Q04DX002 (ip), vehicle: saline with Tween-80"}, "[6]": {"conditions": "endpoint: mean survival time, dose: 400.0 mg/kg/injection, schedule: Q04DX002 (ip), vehicle: saline with Tween-80"}},
  "note": "Where “and” joins values, the source holds several entries; their conditions need not be identical. Equal entries are not always repeated. Inconclusive results and toxic doses are left out. Starred links: 1 amine or outer side, 2 acyl side, 3 side chain; linkers in the order of their positions; H or OH if unused. Positions of bridges follow the written chain, without caps; N, C: chain ends. Non-standard residues stand in square brackets, D forms with d. Residues, ends and D or L forms follow the SMILES beside them. Chains are numbered I, II in the order given. Actinocin(1to9) = Cc1c2oc3c(C)ccc(C(=O)[*:2])c3nc-2c(C(=O)[*:1])c(N)c1=O; NMeV = CN[CH](C(=O)O)C(C)C; Aze = O=C(O)[CH]1CCN1; Sar = CNCC(=O)O",
  "data": [
    {"compound": "Cc1c2oc3c(C)ccc(C(=O)NC4C(=O)NC(C(C)C)C(=O)N5CCCC5C(=O)N(C)CC(=O)N(C)C(C(C)C)C(=O)OC4C)c3nc-2c(C(=O)NC2C(=O)NC(C(C)C)C(=O)N3CCC3C(=O)N(C)CC(=O)N(C)C(C(C)C)C(=O)OC2C)c(N)c1=O", "note": "(stereo not given) (I: TV[Aze][Sar][NMeV] / II: TVP[Sar][NMeV]; ester I:1-I:C, II:1-II:C; linker I:N-II:N via Actinocin(1to9); configuration not given here)", "values": [
      {"measurement": "T/C", "setting": "endpoint: mean survival time, dose: 37.0 micrograms/kg/injection, schedule: Q01DX009 (ip), vehicle: saline + alcohol", "result": "103 % of control"},
      {"measurement": "T/C", "setting": "endpoint: mean survival time, dose: 75.0 micrograms/kg/injection, schedule: Q01DX009 (ip), vehicle: saline + alcohol", "result": "117 % of control"},
      {"measurement": "T/C", "setting": "endpoint: mean survival time, dose: 300.0 micrograms/kg/injection, schedule: Q01DX009 (ip), vehicle: saline + alcohol", "result": "151 % of control"},
      {"measurement": "T/C", "setting": "endpoint: mean survival time, dose: 600.0 micrograms/kg/injection, schedule: Q01DX009 (ip), vehicle: saline + alcohol", "result": "109 % of control"},
      {"measurement": "T/C", "setting": "endpoint: median survival time, dose: 12.5 micrograms/kg/injection, schedule: Q01DX009 (ip), vehicle: saline", "result": "108 % of control"},
      {"measurement": "T/C", "setting": "endpoint: median survival time, dose: 25.0 micrograms/kg/injection, schedule: Q01DX009 (ip), vehicle: saline", "result": "115 % of control"},
      {"measurement": "T/C", "setting": "endpoint: median survival time, dose: 50.0 micrograms/kg/injection, schedule: Q01DX009 (ip), vehicle: saline", "result": "115 % of control"},
      {"measurement": "T/C", "setting": "endpoint: median survival time, dose: 100.0 micrograms/kg/injection, schedule: Q01DX009 (ip), vehicle: saline", "result": "123 % of control"},
      {"measurement": "T/C", "setting": "endpoint: median survival time, dose: 200.0 micrograms/kg/injection, schedule: Q01DX009 (ip), vehicle: saline", "result": "150 % of control"},
      {"measurement": "T/C", "setting": "endpoint: median survival time, dose: 400.0 micrograms/kg/injection, schedule: Q01DX009 (ip), vehicle: saline", "result": "91 % of control"}
    ]},
    {"compound": "O=C(N/N=C/c1ccc2c(c1)OCO2)c1cccc(C(F)(F)F)c1", "values": [
      {"measurement": "T/C", "setting": "[1]", "result": "95 % of control"},
      {"measurement": "T/C", "setting": "[2]", "result": "91 % of control"},
      {"measurement": "T/C", "setting": "[3]", "result": "91 % of control and 104 % of control"},
      {"measurement": "T/C", "setting": "endpoint: mean survival time, dose: 200.0 mg/kg/injection, schedule: Q01DX009 (ip), vehicle: saline with Tween-80", "result": "89 % of control"}
    ]},
    {"compound": "Nc1nc(S)c(N)c(=S)[nH]1", "values": [
      {"measurement": "T/C", "setting": "endpoint: mean survival time, dose: 75.0 mg/kg/injection, schedule: Q01DX001 (ip), vehicle: carboxymethylcellulose (CMC)", "result": "102 % of control"}
    ]},
    {"compound": "Cc1noc2c1ncc[n+]2[O-]", "values": [
      {"measurement": "T/C", "setting": "endpoint: mean survival time, dose: 5.0 mg/kg/injection, schedule: Q04DX003 (ip), vehicle: saline", "result": "101 % of control"},
      {"measurement": "T/C", "setting": "endpoint: mean survival time, dose: 10.0 mg/kg/injection, schedule: Q04DX003 (ip), vehicle: saline", "result": "101 % of control"},
      {"measurement": "T/C", "setting": "endpoint: mean survival time, dose: 20.0 mg/kg/injection, schedule: Q04DX003 (ip), vehicle: saline", "result": "100 % of control"}
    ]},
    {"compound": "c1cc[n+](Cc2ccc3ccccc3c2)c(C2OCCO2)c1", "values": [
      {"measurement": "T/C", "setting": "endpoint: mean survival time, dose: 5.0 mg/kg/injection, schedule: Q01DX009 (ip), vehicle: saline", "result": "102 % of control"},
      {"measurement": "T/C", "setting": "endpoint: mean survival time, dose: 10.0 mg/kg/injection, schedule: Q01DX009 (ip), vehicle: saline", "result": "102 % of control"},
      {"measurement": "T/C", "setting": "endpoint: mean survival time, dose: 20.0 mg/kg/injection, schedule: Q01DX009 (ip), vehicle: saline", "result": "105 % of control"}
    ]},
    {"compound": "O=C1c2ccccc2C(=O)N1CN1CCC(CCCC2CCN(CN3C(=O)c4ccccc4C3=O)CC2)CC1", "values": [
      {"measurement": "T/C", "setting": "endpoint: mean survival time, dose: 25.0 mg/kg/injection, schedule: Q04DX003 (ip), vehicle: saline with Tween-80", "result": "95 % of control"},
      {"measurement": "T/C", "setting": "endpoint: mean survival time, dose: 50.0 mg/kg/injection, schedule: Q04DX003 (ip), vehicle: saline with Tween-80", "result": "95 % of control"},
      {"measurement": "T/C", "setting": "endpoint: mean survival time, dose: 100.0 mg/kg/injection, schedule: Q04DX003 (ip), vehicle: saline with Tween-80", "result": "95 % of control"}
    ]},
    {"compound": "CN(C)C(=S)Oc1ccc(S(=O)(=O)F)cc1F", "values": [
      {"measurement": "T/C", "setting": "[4]", "result": "93 % of control"},
      {"measurement": "T/C", "setting": "[5]", "result": "93 % of control"},
      {"measurement": "T/C", "setting": "[6]", "result": "104 % of control"}
    ]},
    {"compound": "O=C1C(c2ccccc2)=C(c2ccccc2)c2ccc(Cl)cc21", "values": [
      {"measurement": "T/C", "setting": "endpoint: mean survival time, dose: 100.0 mg/kg/injection, schedule: Q01DX001 (ip), vehicle: saline with Tween-80", "result": "106 % of control"},
      {"measurement": "T/C", "setting": "endpoint: mean survival time, dose: 200.0 mg/kg/injection, schedule: Q01DX001 (ip), vehicle: saline with Tween-80", "result": "98 % of control"},
      {"measurement": "T/C", "setting": "endpoint: mean survival time, dose: 400.0 mg/kg/injection, schedule: Q01DX001 (ip), vehicle: saline with Tween-80", "result": "97 % of control"}
    ]},
    {"compound": "O=NN(CCF)C(=O)NC1CCC(NC(=O)N(CCF)N=O)CC1", "note": "(stereo not given)", "values": [
      {"measurement": "T/C", "setting": "endpoint: mean survival time, dose: 3.13 mg/kg/injection, schedule: Q01DX009 (ip), vehicle: saline with Tween-80", "result": "117 % of control"},
      {"measurement": "T/C", "setting": "[1]", "result": "240 % of control"},
      {"measurement": "T/C", "setting": "[2]", "result": "273 % of control and 289 % of control"},
      {"measurement": "T/C", "setting": "[3]", "result": "234 % of control"}
    ]},
    {"compound": "O=C(O)/C=C\\c1ccc(OC(=O)c2ccccc2)cc1", "values": [
      {"measurement": "T/C", "setting": "endpoint: mean survival time, dose: 50.0 mg/kg/injection, schedule: Q01DX009 (ip), vehicle: Klucel (hydroxypropylcellulose) (HPC)", "result": "96 % of control"},
      {"measurement": "T/C", "setting": "endpoint: mean survival time, dose: 100.0 mg/kg/injection, schedule: Q01DX009 (ip), vehicle: Klucel (hydroxypropylcellulose) (HPC)", "result": "93 % of control"},
      {"measurement": "T/C", "setting": "endpoint: mean survival time, dose: 200.0 mg/kg/injection, schedule: Q01DX009 (ip), vehicle: Klucel (hydroxypropylcellulose) (HPC)", "result": "93 % of control"}
    ]},
    {"compound": "CCOc1ccc(CCN2CC34C=CC(O3)C(C(=O)O)C4C2=O)cc1OC", "note": "(stereo not given)", "values": [
      {"measurement": "T/C", "setting": "[4]", "result": "95 % of control"},
      {"measurement": "T/C", "setting": "[5]", "result": "95 % of control"},
      {"measurement": "T/C", "setting": "[6]", "result": "91 % of control"}
    ]}
  ]
}
